The target of data set [1] is EtCRK2/EtCYC3a (Eimeria tenella, UniProt Q6R8F0). Briefly: TR-FRET kinase assay, EtCRK2 activated by EtCYC3a. It counts as biochemical. The source says:
(§1) In order to discover specific inhibitors of EtCRK2 we performed an in vitro screening campaign supported by an in silico hit enrichment (Fig. 4).

The target of data set [2] is EtCRK2/XlRINGO (Eimeria tenella, UniProt Q6R8F0). Put plainly: biochemical.
Source text: Therefore, we tested XlRINGO as an activator of EtCRK2.
as §1

Data set [3] addresses Eimeria tenella cyclin-like 3a (EtCYC3a), maltose binding protein fusion (Eimeria tenella).
The target in data set [4] is HsCDK2/HsCYCA (Homo sapiens, UniProt P24941). Briefly: TR-FRET kinase assay, human CDK2 activated by human cyclin A. It counts as biochemical. Particulars: for IC50 / Ki: mean±SD, n = 3–6. (In TR-FRET formats the signal depends on donor and acceptor labels being close together.)
Data set [5] has as its system host cell. Further details: method as in Engels et al., 2010. Particulars: ref Engels et al., 2010; cited from earlier work.
The test system of data set [6] is EtCRK2. Further details: method as in Engels et al., 2010. The conditions noted are these: ref Engels et al., 2010, cited from earlier work.
The subject of data set [7] is E. tenella schizont development. Details: method as in Engels et al., 2010. The conditions noted are these: ref Engels et al., 2010, cited from earlier work.
Setting [8] is: lead structures, mean±SD, n = 3–6, read-out: IC50 EtCRK2/ XlRINGO.
The mark [9] stands for this setting: lead structures, mean±SD, n = 3–6, read-out: Ki EtCRK2/ XlRINGO.
[10] abbreviates: standard CDK inhibitors, mean±SD, n = 3–6, read-out: IC50 EtCRK2/EtCYC3a.
The mark [11] stands for this setting: standard CDK inhibitors, mean±SD, n = 3–6, read-out: Ki EtCRK2/EtCYC3a.
Where [12] appears, read: standard CDK inhibitors, mean±SD, n = 3–6, read-out: IC50 EtCRK2/XlRINGO.
Setting [13] is: standard CDK inhibitors, mean±SD, n = 3–6, read-out: Ki EtCRK2/XlRINGO.
Setting [14] is: lead structures, mean±SD, n = 3–6, read-out: IC50 EtCRK2/ EtCYC3a.
The mark [15] stands for this setting: lead structures, mean±SD, n = 3–6, read-out: Ki EtCRK2/ ETCYC3a.

Like-named read-outs stand apart in the source and are kept apart here.

Regarding `CN[C@@H]1C[C@H]2O[C@@](C)([C@@H]1OC)n1c3ccccc3c3c4c(c5c6ccccc6n2c5c31)C(=O)NC4` [Staurosporine, (9S,10R,11R,13R)-2,3,10,11,12,13-hexahydro-10-methoxy-9-methyl-11-(methylamino)-9,13-epoxy-1H,9H-diindolo[1,2,3-gh:3′,2′,1′-lm]pyrrolo[3,4-j][1,7]benzodiazonin-1-one], the IC50 came out at 190 ± 90 nM in data set [1] and 90 ± 10 nM in data set [2]. Besides, the values for the Ki in data set [1] and in data set [2] were 530 ± 200 nM and 20 ± 10 nM, respectively.
As for “Eimeria tenella CDC2-related kinase 2 (EtCRK2), His-tagged (enzyme)”, the specific activity of EtCRK2 in the EtCRK2/EtCYC3a complex, TR-FRET kinase assay with fluorescein-labelled histone H1 substrate in data set [3] stood at 0.15 µmol/min/mg.
As to `Nc1cc(S(=O)(=O)O)c2cccnc2c1O` [BES312351, 7-amino-8-hydroxy-quinoline-5-sulfonic acid hydrate], the values for the IC50 in data set [1], in data set [2] (setting [8]) and in data set [4] (lead structures) were 6500 ± 2490 nM, 7130 ± 2490 nM and 5160 ± 2850 nM, respectively. For the same molecule, the results for the Ki in data set [1], in data set [2] (setting [9]) and in data set [4] (lead structures) were 4670 ± 2020 nM, 940 ± 310 nM and 780 ± 610 nM, respectively.
For the molecule `O=C1Nc2ccc(S(=O)(=O)O)cc2/C1=C1/Nc2ccccc2C1=O` [Indirubin-5′-sulfonic acid, (3Z)-2-oxo-3-(3-oxo-1H-indol-2-ylidene)-1H-indole-5-sulfonic acid], the figures for the IC50 in data set [1] (setting [10]) and in data set [2] (setting [12]) were 940 ± 310 nM and 670 ± 180 nM, respectively. In addition, the Ki in data set [1] (setting [11]) came to 240 ± 100 nM; in data set [2] (setting [13]), 170 ± 30 nM.
Consider `NC1=NC(=O)/C(=C2\CCNC(=O)c3[nH]c(Br)cc32)N1` [10-Z-Hymendialdisine, (4Z)-4-(2-amino-4-oxo-1H-imidazol-5-ylidene)-2-bromo-1,5,6,7-tetrahydropyrrolo[2,3-c]azepin-8-one], for which the values for the IC50 in data set [1], in data set [2] (setting [12]) and in data set [4] (standard CDK inhibitors) were 930 ± 40 nM, 440 ± 80 nM and 120 ± 20 nM, respectively. Besides, the Ki in data set [1] was determined as 190 ± 10 nM; in data set [2] (setting [13]) it was 50 ± 20 nM; in data set [4] (standard CDK inhibitors) it was 30 ± 1 nM.
For `CN1CC[C@H](c2c(O)cc(O)c3c(=O)cc(-c4ccccc4Cl)oc23)[C@H](O)C1` [Flavopiridole, 2-(2-chlorophenyl)-5,7-dihydroxy-8-[(3S,4R)-3-hydroxy-1-methyl-4-piperidinyl]-4H-1-benzopyran-4-one], in data set [5], the “concentrations at which host cell toxicity is observed” value is “above 600 nM”. In addition, in data set [6] (read-out: IC50 EtCRK2 in enzyme assays), the IC50 is 33 ± 10 nM. The Ki in data set [6] (read-out: Ki EtCRK2 in enzyme assays) is 11 ± 3 nM. Also, the “inhibition of E. tenella schizont development” value is listed as “fully inhibits” in data set [7] (at concentrations of 150 and 300 nM); “no inhibitory effects” in data set [7] (concentrations below 80 nm).
`OC(CSc1ccccc1)CN1CCC(Nc2nccc(C(F)(F)F)n2)CC1` (centres unmarked) [BES124764, 1-phenylsulfanyl-3-[4-[[4-(trifluoromethyl)pyrimidin-2-yl]amino]-1-piperidyl]propane-2-ol]: the IC50 is 7350 ± 1820 nM in data set [1] (setting [14]), 18600 ± 3720 nM in data set [2] (setting [8]) and over 200000 nM in data set [4] (lead structures). Further, the Ki is 3420 ± 1080 nM in data set [1] (setting [15]), 4330 ± 920 nM in data set [2] (setting [9]) and 95300 ± 19100 nM in data set [4] (lead structures). For the same molecule, in data set [4] (EtCRK2/XlRINGO and EtCRK2/EtCYC3a versus HsCDK2/HsCYCA), the “times more active towards the two E. tenella complexes than towards the HsCDK2/HsCYCA complex” value is 25–30 times. In addition, the “selectivity for EtCRK2 versus HsCDK2” value in data set [4] (result in words) was “selective for EtCRK2”.
Take `O=C1Cc2c([nH]c3ccc([N+](=O)[O-])cc23)-c2ccccc2N1` [Alsterpaullone, 9-nitro-7,12-dihydro-5H-indolo[3,2-d][1]benzazepin-6-one]: the figures for the IC50 in data set [1] (setting [10]) and in data set [2] (setting [12]) were 640 ± 340 nM and 220 ± 60 nM, respectively. The Ki in data set [1] (setting [11]) was found to be 210 ± 40 nM; in data set [2] (setting [13]), 70 ± 2 nM.
As for `Cc1cc(O)c2c(c1O)C(=O)C(Cl)=C(Cl)C2=O` [BES130131, 2,3-dichloro-5,8-dihydroxy-6-methyl-naphthalene-1,4-dione], the IC50 in data set [1] (setting [14]) amounted to 18100 ± 1030 nM; in data set [2] (setting [8]) it was 14800 ± 8410 nM; in data set [4] (lead structures), 14400 ± 1520 nM. Further, the Ki in data set [1] (setting [15]) amounted to 6870 ± 1740 nM; in data set [2] (setting [9]), 5250 ± 200 nM; in data set [4] (lead structures), 3350 ± 1060 nM.
`CC(C)C(CO)Nc1nc(Nc2cccc(Cl)c2)c2ncn(C(C)C)c2n1` (centres unmarked) [Purvalanol A, 2-[[6-[(3-chlorophenyl)amino]-9-isopropyl-purin-2-yl]amino]-3-methyl-butan-1-ol]: the IC50 in data set [1] (setting [10]) was found to be 1030 ± 180 nM; in data set [2] it was 800 ± 110 nM; in data set [4] (standard CDK inhibitors), 140 ± 40 nM. The results for the Ki in data set [1] (setting [11]), in data set [2] and in data set [4] (standard CDK inhibitors) were 360 ± 130 nM, 80 ± 10 nM and 40 ± 1 nM, respectively.

The record behind these values is publication PMC3542813, “High-throughput screening with the Eimeria tenella CDC2-related kinase2/cyclin complex EtCRK2/EtCYC3a” (Microbiology, 2012).
